Literature values as cited in patent US11485730B2, “Compositions and methods for the treatment of fungal infections” (Cellix Bio Private Limited, priority 2016, dated 2022).
Where two headings read alike, the source gives them in different places.

Tests used:
[1] = among the long-chain fatty acids
[2] = system: oral streptococci and periodontopathogens
[3] = system: various oral pathogenic microorganisms

In the case of `CCCCCC/C=C\CCCCCCCC(=O)O` [palmitoleic acid], the antimicrobial activity [1] is given as “greatest antimicrobial activity”.
For `CCCCC/C=C\C/C=C\C/C=C\C/C=C\CCCC(=O)O` [arachidonic acid], the antimicrobial activity [1] is given as “greatest antimicrobial activity”.
For `CCCCCCCCCCCCCCCC(=O)O` [palmitic acid], the antimicrobial activity [1] is listed as “greatest antimicrobial activity”.
For `CCCCC/C=C\C/C=C\CCCCCCCC(=O)O` [linoleic acid], the “activity against C. albicans” value (C. albicans) is given as less than 40%, the MIC (Candida Species) is given as 450 µM and the MIC (Candida Species; printed as corresponding to 0.45 μmoles/ml) is given as 0.13 µg/mL. The bactericidal concentration [2] was 25 µg/mL and the antimicrobial activity [1] was “greatest antimicrobial activity”.
For `CCCCC/C=C\C/C=C\C/C=C\CCCCC(=O)O` [GLA, gamma linoleic acid], the bactericidal concentration ([2]; n-6 fatty acids) is listed as 25 µg/mL, the antimicrobial activity [1] is listed as “greatest antimicrobial activity” and the anti-microbial activity ([3]; in vitro studies, various oral pathogenic microorganisms) is listed as “significant anti-microbial activity”. For the same compound, the antimicrobial activities ([3]; various oral microorganisms, including S. mutans, A. actinomycetemcomitans, C. albicans, P. gingivalis, F. nucleatum, S. gordonii) was “antimicrobial activities”.
